The source made the active and inactive calls. The rule behind the calls is not given here. Where a SMILES comes first, the peptide text is derived from it. [ ]: non-standard residue; d: D form. The star is where a group is joined. X1 = CN(C)c1ccc(/N=N/c2nc3ccc(OCCOCCOCCN*)cc3s2)cc1; Dip = N[C@H](C(=O)O)C(c1ccccc1)c1ccccc1; Chg = N[C@H](C(=O)O)C1CCCCC1; NMeA = CN[C@@H](C)C(=O)O
How the values were obtained:
Assay type in all cases: protein assay
[1] = target: T1, Baculoviral IAP repeat-containing protein 3/Huntingtin (Homo sapiens) (UniProt Q13489+P42858); assay: Induction of IAP-huntingtin interaction-mediated huntingtin protein degradation in fibroblasts derived from normal human subjects assessed as huntingtin protein level at 10 uM incubated for 24 hrs by Western blot method (reference value: 100%)
[2] = target: T1, Baculoviral IAP repeat-containing protein 3/Huntingtin (Homo sapiens); assay: Induction of IAP-huntingtin interaction-mediated huntingtin protein degradation in fibroblasts derived from normal human subjects at 10 uM incubated for 24 to 72 hrs by Western blot method
[3] = target: T1, Baculoviral IAP repeat-containing protein 3/Huntingtin (Homo sapiens); assay: Induction of IAP-huntingtin interaction-mediated huntingtin protein degradation in fibroblasts derived from normal human subjects assessed as huntingtin protein level at 10 uM incubated for 96 hrs by Western blot method (reference value: 100%)
[4] = target: T1, Baculoviral IAP repeat-containing protein 3/Huntingtin (Homo sapiens); assay: Induction of IAP-huntingtin interaction-mediated huntingtin protein degradation in fibroblasts derived from Huntington's disease patient at 10 uM incubated for 24 to 72 hrs by Western blot method
[5] = target: T1, Baculoviral IAP repeat-containing protein 3/Huntingtin (Homo sapiens); assay: Induction of IAP-huntingtin interaction-mediated huntingtin protein degradation in fibroblasts derived from normal human subjects assessed as huntingtin protein level at 10 uM incubated for 48 hrs by Western blot method (reference value: 100%)
[6] = target: T1, Baculoviral IAP repeat-containing protein 3/Huntingtin (Homo sapiens); assay: Induction of IAP-huntingtin interaction-mediated huntingtin protein degradation in fibroblasts derived from normal human subjects assessed as huntingtin protein level at 10 uM incubated for 72 hrs by Western blot method (reference value: 100%)
[7] = target: T1, Baculoviral IAP repeat-containing protein 3/Huntingtin (Homo sapiens); assay: Induction of IAP-huntingtin interaction-mediated huntingtin protein degradation in fibroblasts derived from Huntington's disease patient incubated for 48 to 72 hrs by Western blot method
[8] = target: T1, Baculoviral IAP repeat-containing protein 3/Huntingtin (Homo sapiens); assay: Induction of immobilized GST tagged BIR3 (unknown origin)/soluble GST-tagged huntingtin 62Q mutant (unknown origin) interaction at 10 uM in presence of 3 and 10 uM MV1 incubated for 1.5 hrs at 37 degC by ELISA
[9] = target: T1, Baculoviral IAP repeat-containing protein 3/Huntingtin (Homo sapiens); assay: Induction of IAP-huntingtin interaction-mediated huntingtin protein degradation in fibroblasts derived from Huntington's disease patient incubated for 24 hrs by Western blot method
[10] = target: T1, Baculoviral IAP repeat-containing protein 3/Huntingtin (Homo sapiens); assay: Induction of immobilized GST tagged BIR3 (unknown origin)/soluble GST-tagged huntingtin 62Q mutant (unknown origin) interaction at 3 to 30 uM incubated for 1.5 hrs at 37 degC by ELISA
[11] = target: T1, Baculoviral IAP repeat-containing protein 3/Huntingtin (Homo sapiens); assay: Induction of immobilized GST tagged BIR3 (unknown origin)/soluble GST-tagged huntingtin 62Q mutant (unknown origin) interaction at 10 uM in presence of 10 and 100 uM thioflavin T incubated for 1.5 hrs at 37 degC by ELISA
[12] = target: T1, Baculoviral IAP repeat-containing protein 3/Huntingtin (Homo sapiens); assay: Induction of immobilized GST tagged BIR3 (unknown origin)/insoluble GST-tagged huntingtin 62Q mutant (unknown origin) interaction at 3 to 30 uM incubated for 1.5 hrs at 37 degC by ELISA

T1 sequence (P42858 whole entry, looked up): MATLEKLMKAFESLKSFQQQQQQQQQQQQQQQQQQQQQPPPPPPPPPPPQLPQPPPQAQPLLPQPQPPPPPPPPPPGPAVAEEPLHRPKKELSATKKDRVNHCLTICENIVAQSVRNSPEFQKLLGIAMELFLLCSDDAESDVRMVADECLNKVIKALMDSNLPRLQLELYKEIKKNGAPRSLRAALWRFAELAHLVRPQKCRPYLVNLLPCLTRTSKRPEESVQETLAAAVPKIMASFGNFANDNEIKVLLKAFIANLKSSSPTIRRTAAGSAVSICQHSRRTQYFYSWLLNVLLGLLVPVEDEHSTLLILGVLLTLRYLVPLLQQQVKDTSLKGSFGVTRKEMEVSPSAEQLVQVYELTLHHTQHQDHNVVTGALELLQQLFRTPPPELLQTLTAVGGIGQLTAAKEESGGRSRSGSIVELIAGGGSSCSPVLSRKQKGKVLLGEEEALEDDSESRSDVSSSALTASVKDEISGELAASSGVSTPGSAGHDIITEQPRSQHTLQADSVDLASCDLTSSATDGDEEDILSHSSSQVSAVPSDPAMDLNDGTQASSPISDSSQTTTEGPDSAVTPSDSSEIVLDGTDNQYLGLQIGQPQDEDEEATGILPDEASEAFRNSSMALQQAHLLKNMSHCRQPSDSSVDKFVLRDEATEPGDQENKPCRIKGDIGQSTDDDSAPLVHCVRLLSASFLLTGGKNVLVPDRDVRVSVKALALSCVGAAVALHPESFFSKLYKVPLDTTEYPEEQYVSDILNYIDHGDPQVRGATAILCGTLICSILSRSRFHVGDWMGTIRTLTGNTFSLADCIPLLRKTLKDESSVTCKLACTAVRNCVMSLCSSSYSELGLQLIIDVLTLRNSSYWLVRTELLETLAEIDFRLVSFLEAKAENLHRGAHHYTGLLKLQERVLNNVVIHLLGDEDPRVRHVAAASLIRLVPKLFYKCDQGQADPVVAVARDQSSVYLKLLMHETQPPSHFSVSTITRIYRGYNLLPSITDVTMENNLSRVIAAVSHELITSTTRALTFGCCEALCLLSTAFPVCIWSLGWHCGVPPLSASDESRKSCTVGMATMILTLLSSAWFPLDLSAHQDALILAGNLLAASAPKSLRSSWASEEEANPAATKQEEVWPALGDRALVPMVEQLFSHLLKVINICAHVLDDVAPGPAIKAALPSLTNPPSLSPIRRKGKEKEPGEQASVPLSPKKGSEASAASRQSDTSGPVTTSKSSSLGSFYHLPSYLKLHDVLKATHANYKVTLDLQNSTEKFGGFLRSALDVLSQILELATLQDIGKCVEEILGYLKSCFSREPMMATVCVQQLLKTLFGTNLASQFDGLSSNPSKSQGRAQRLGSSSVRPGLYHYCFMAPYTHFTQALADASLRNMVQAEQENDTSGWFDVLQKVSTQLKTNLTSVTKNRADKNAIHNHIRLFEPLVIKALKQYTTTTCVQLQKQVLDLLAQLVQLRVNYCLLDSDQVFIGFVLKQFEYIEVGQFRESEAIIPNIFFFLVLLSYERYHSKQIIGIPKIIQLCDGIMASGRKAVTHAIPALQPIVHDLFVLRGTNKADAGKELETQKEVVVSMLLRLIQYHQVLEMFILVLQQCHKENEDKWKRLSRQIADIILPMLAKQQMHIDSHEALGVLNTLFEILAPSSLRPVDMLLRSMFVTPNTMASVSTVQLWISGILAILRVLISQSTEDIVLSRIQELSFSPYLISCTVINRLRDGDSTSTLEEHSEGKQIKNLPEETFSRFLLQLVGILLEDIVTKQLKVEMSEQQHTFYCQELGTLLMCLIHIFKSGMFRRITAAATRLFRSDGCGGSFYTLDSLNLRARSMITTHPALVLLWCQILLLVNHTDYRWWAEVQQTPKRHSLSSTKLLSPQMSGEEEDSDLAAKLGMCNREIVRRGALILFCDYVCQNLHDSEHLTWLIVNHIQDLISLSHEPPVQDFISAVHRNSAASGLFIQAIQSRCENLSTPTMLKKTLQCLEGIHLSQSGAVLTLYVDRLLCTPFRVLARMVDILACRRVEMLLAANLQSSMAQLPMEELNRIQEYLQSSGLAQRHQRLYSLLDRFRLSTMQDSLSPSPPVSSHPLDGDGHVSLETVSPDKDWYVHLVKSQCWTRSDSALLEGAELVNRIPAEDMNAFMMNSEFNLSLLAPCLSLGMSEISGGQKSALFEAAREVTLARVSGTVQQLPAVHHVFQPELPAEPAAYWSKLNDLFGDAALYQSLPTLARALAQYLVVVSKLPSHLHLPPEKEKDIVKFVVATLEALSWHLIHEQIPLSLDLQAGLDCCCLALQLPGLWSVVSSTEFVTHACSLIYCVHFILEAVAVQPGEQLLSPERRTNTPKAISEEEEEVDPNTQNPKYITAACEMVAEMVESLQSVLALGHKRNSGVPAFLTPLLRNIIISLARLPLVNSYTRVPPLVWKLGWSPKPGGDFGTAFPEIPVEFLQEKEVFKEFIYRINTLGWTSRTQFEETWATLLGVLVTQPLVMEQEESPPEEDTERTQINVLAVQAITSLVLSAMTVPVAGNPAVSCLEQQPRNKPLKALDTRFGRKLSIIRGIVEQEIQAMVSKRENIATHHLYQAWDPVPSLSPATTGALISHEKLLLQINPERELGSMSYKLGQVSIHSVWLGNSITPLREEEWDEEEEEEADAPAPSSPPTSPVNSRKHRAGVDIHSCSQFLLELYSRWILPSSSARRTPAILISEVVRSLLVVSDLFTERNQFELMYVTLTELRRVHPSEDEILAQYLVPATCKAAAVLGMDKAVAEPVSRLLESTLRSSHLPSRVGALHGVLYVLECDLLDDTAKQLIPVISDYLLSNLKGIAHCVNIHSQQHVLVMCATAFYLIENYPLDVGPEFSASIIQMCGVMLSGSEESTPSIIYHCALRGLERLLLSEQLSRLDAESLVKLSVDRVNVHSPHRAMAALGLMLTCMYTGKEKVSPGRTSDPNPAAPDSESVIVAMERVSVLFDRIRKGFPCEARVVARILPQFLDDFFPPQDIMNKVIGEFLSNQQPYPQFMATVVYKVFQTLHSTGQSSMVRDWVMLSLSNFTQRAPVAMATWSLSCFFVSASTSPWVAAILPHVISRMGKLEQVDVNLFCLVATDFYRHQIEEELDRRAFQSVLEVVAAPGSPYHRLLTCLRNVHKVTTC
T1 sequence (Q13489 whole entry, looked up): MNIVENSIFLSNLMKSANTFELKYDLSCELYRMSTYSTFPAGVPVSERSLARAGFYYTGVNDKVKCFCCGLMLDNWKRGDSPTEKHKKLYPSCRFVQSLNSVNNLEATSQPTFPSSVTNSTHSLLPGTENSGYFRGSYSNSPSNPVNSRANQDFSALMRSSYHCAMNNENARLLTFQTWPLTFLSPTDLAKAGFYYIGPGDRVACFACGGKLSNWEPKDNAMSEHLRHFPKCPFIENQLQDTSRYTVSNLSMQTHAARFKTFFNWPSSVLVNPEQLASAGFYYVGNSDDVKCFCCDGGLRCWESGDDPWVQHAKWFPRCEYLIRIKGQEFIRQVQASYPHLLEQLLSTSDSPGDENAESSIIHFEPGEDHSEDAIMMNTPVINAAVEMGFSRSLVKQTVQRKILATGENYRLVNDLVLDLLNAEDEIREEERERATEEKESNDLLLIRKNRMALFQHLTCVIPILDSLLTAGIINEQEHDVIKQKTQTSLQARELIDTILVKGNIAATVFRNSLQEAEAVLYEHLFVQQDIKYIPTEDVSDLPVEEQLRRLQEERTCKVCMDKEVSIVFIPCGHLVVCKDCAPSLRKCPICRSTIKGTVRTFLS

## Cc1ccc2nc(-c3ccc(NCCOCCOCCNC(=O)[C@H](CC(C)C)NC(=O)[C@@H](O)[C@H](N)Cc4ccccc4)cc3)sc2c1
[1]
  Activity: Active
[2]
  Activity: Active
[3]
  Activity: Active
[4]
  Activity: Active
[5]
  Activity: Active
[6]
  Activity: Active

## CC(C)C[C@H](NC(=O)[C@@H](O)[C@H](N)Cc1ccccc1)C(=O)NCCOCCOCCOc1ccc2nc(/N=N/c3ccc(N(C)C)cc3)sc2c1
[1]
  Activity: Active
[2]
  Activity: Active
[3]
  Activity: Active
[4]
  Activity: Active
[5]
  Activity: Active
[6]
  Activity: Active

## CN[C@@H](C)C(=O)N[C@H](C(=O)N1CCC[C@H]1C(=O)N[C@H](C(=O)NCCOCCOCCOc1ccc2nc(/N=N/c3ccc(N(C)C)cc3)sc2c1)C(c1ccccc1)c1ccccc1)C1CCCCC1 (H-[NMeA][Chg]P[Dip]-X1)
[1]
  Activity: 72%
[7]
  Activity: Active
[8]
  Activity: inactive
[9]
  Activity: Dose-dependent effect
[10]
  Activity: Active
[11]
  Activity: inactive
[3]
  Activity: 44%
[4]
  Activity: Active
[12]
  Activity: Active
[5]
  Activity: 70%
[6]
  Activity: 76%

— ChEMBL document CHEMBL4184224, “Degradation of huntingtin mediated by a hybrid molecule composed of IAP antagonist linked to phenyldiazenyl benzothiazole derivative” (Bioorg Med Chem Lett, 2018)
